According to patent US11045452B2, “Composition for preventing or treating cancer comprising a vascular disrupting agent and immune checkpoint inhibitor” (CHONG KUN DANG PHARMACEUTICAL CORP., priority 2017, dated 2021):

Tests used:
[1] = system: MC38, a mouse colorectal cancer cell line; assay: MC38 cancer animal model, Formula 1 with anti-PD-L1 antibody (Example 3); format: in vivo, C57BL/6 mouse; settings: FIG. 7
Procedure: (§1) MC38 (8×10^4 cell), a mouse colorectal cancer cell line, was subcutaneously transplanted to a C57BL/6 mouse. When a size of cancer reaches 40-60 mm^3, a vehicle or 5 mg/kg of the compound of the Formula 1 was intraperitoneally injected into the mouse twice a week. Also, 1 ug/uL (200 ug/200 uL/mouse) of an anti-PD-L1 antibody was intraperitoneally injected into the mouse twice a week, in one day after administering a vehicle or the compound of the Formula 1. A size of cancer and a weight were measured twice a week.

[2] = system: MC38, a mouse colorectal cancer cell line; assay: MC38 cancer animal model, Formula 1 with anti-PD-1 / anti-CTLA-4 antibody (Example 2); format: in vivo, C57BL/6 mouse
Procedure: as §1, with “anti-PD-1 antibody, an anti-CTLA-4” for “anti-PD-L1”, “antibody or both thereof (purchased from BioXCell)” for “antibody”

[3] = system: mouse bone marrow-derived dendritic cells (BM-DC); assay: Measurement of phagocytosis of dendritic cells (FITC OVA-microsphere, flow cytometer); format: cell-based; settings: 100 nM, 18 hours, then FITC OVA-microsphere 2 hours, FIG. 5
Procedure: (§2) Mouse bone marrow-derived dendritic cells (BM-DC) were obtained from a femur of BALB/c or C57BL/6 mouse. The cells were kept with Dulbecco's modified Eagle medium (DMEM) containing 40 ng/mL of rmGM-CSF (JW Creagene, Sungnam, Korea) and 20 ng/mL of rmIL-4 (JW CreaGene), and containing 10% heat-inactivated FBS (Hyclone), 100 U/ml of penicillin, 100 μg/ml of streptomycin (Hyclone) and 50 μM of 2-mercaptoethanol (Sigma-Aldrich, Inc., St. Louis, Mo., USA).
(§3) A compound of a Formula 2 (Compound 2), which was an active metabolite of the compound of the Formula 1, was dissolved in DMSO, and diluted with a medium of the mouse bone marrow-derived dendritic cells so as to prepare active compound.
To identify phagocytosis of dendritic cells, the mouse bone marrow-derived dendritic cells (2×10^6/well) were treated with 100 nM of the compound of the Formula 2 for 18 hours, and then added with OVA-microsphere containing ovalbumin tagged with fluorescein isothiocyanate (FITC), so as to be cultured for 2 hours. Completely cultured cells were washed with PBS, and then the cells were collected, fixed with paraformaldehyde, and analyzed with a flow cytometer.
(§4) A statistical significance between a control group and a treated group was verified by using student t-test.

[4] = system: mouse bone marrow-derived dendritic cells (BM-DC); assay: Measurement of cytokines produced by dendritic cells (immunoassay kit); format: cell-based; settings: 24 hours, cell culture medium, all groups administered, FIG. 4
Procedure: as §2, §3
To identify a change in secretion of cytokines, the mouse bone marrow-derived dendritic cells were treated with the compound of the Formula 2 for 24 hours, and then the cytokines were measured by using a cell culture medium. An immunoassay kit (R&D system) was used for measuring cytokines, and thus IL-1β, IL-6 and IL-12 were measured.
as §4

[5] = system: mouse bone marrow-derived dendritic cells (BM-DC); assay: Identification of phenotype of dendritic cells (flow cytometry of cell surface markers); format: cell-based; settings: 24 hours
Procedure: as §2, §3
To identify a phenotype of dendritic cells, the mouse bone marrow-derived dendritic cells were treated with the compound of the Formula 2 for 24 hours, and then were dyed with an antibody (antibody to anti-mouse CD80, anti-mouse CD86 or anti-mouse MHC II) to a cell surface marker of the mouse bone marrow-derived dendritic cells as well as an isotype control antibody. Flow cytometry was performed by using FACS Canto II flow cytometer (Becton Dickinson).
as §4

SMILES	therapeutic potential in combination with the anti-PD-L1 antibody ([1]; Formula 1 5 mg/kg i.p. + anti-PD-L1 antibody 200 ug/mouse i.p., twice a week)	growth of cancer ([1]; single administration, Formula 1 5 mg/kg i.p. twice a week, antibody 200 ug/mouse i.p. twice a week)	therapeutic potential in combination with the anti-CTLA-4 antibody ([2]; Formula 1 5 mg/kg i.p. + anti-CTLA-4 antibody 200 ug/mouse i.p., twice a week, FIG. 6)	therapeutic potential in combination with the anti-PD-1 antibody ([2]; Formula 1 5 mg/kg i.p. + anti-PD-1 antibody 200 ug/mouse i.p., twice a week, FIG. 6)	experimental animals in which cancer was completely eradicated ([2]; Formula 1 5 mg/kg i.p. + anti-PD-1 antibody and anti-CTLA-4 antibody, twice a week)	anti-cancer effect in combination with the anti-PD-1 antibody and the anti-CTLA-4 antibody ([2]; Formula 1 5 mg/kg i.p. + both antibodies i.p., twice a week, FIG. 6)	growth of cancer ([2]; single administration, Formula 1 5 mg/kg i.p. twice a week, antibody 200 ug/mouse i.p. twice a week, FIG. 6)	phagocytosis of dendritic cells (fluorescence intensity) [3]	IL-1β secretion [4]	IL-6 secretion [4]	IL-12 secretion [4]	MHC II (phenotype of mature dendritic cells) expression ([5]; 100 nM, FIG. 3)	CD80 (mature dendritic cell marker) expression ([5]; 0.01, 0.1 and 1 μM, FIG. 1)	CD86 (mature dendritic cell marker) expression ([5]; 0.01, 0.1 and 1 μM, FIG. 2)
COc1cc(C(=O)c2ccc(-c3csc(NC(=O)[C@@H](N)C(C)C)n3)cc2-n2cncn2)cc(OC)c1OC [Formula 1, (S)—N-(4-(3-(1H-1,2,4-triazole-1-yl)-4-(3,4,5-trimethoxybenzoyl)phenyl)thiazole-2-yl)-2-amino-3-methylbutanamide]	very high therapeutic potential with a synergy effect	remarkably inhibited	very high therapeutic potential with a synergy effect	very high therapeutic potential with a synergy effect	two of ten	most increased	remarkably inhibited	–	–	–	–	–	–	–
COc1cc(C(=O)c2ccc(-c3csc(N)n3)cc2-n2cncn2)cc(OC)c1OC [Formula 2, (4-(2-aminothiazole-4-yl)-2-(1H-1,2,4-triazole-1-yl)phenyl)(3,4,5-trimethoxyphenyl)methanone]	–	–	–	–	–	–	–	increased	increased	increased	increased	increased	increased	increased
